Reference: article PMC11641365, “Evaluation of In Vitro Biological Activity of Flavanone/Chromanone Derivatives: Molecular Analysis of Anticancer Mechanisms in Colorectal Cancer” (International Journal of Molecular Sciences, 2024)
Read-outs that look alike come from different tables or passages of the source.

Tests used:
Assay type in all cases: cell-based, human
Caco-2 = assay: MTT cell viability assay; settings: 24 h incubation with compound, mean ± SD of three experiments, read-out: Cytotoxic effect, IC50
Description: (§1) The cytotoxic activity of the 3-benzylideneflavanones, 3-benzylidenechromanones derivatives (compounds 1, 2, 3, 4, 5) and 5′-(3-methoxyphenyl)-2-phenyl-4′,5′-dihydro-4H-spiro[chromano-3,3′-pirazol]-4-one (compound 3a) was evaluated using the MTT assay (4,5-dimethylthiazol-2-yl)-2,5-diphenyltetrazoliumbromide), a colorimetric method that quantifies cell viability.
(§2) Cell viability was determined using the metabolic microplate spectrophotometric assay with Methylthiazolyl diphenyltetrazolium bromide (MTT) (Sigma-Aldrich; St. Louis, MO, USA). The MTT method belongs to metabolic tests for determining cell viability and consists of measuring the absorbance of a violet solution of formazan, a product of the reduction of a water-soluble yellow MTT by oxidoreductive enzymes (mainly mitochondrial succinate dehydrogenase) of living cells. The amount of the reaction product (water-insoluble formazan crystals) is proportional to the number of living and metabolically active cells in the sample. In the case of damaged or dead cells, formazan is formed in smaller amounts, or it is not formed.
(§3) The appropriate number of cells for a given cell line (6–8 × 10^3 cells/mL) were seeded onto colorless, sterile 96-well microplates (Nunc, Roskilde, Denmark) in the number appropriate for a given cell line. After 24 h of culture, various concentrations of the studied compounds (10^−7–10^−5 M) freshly prepared in DMSO (final concentration DMS < 0.1%) and diluted with complete culture medium were added and incubated in a CO2 incubator for 24 h. After this time, the medium was removed; the cell monolayer was washed twice with sterile PBS solution; and fresh culture medium was added to the microplate wells. After 48 h of cell culture, the MTT test was performed. A volume of 50 μL of tetrazolium salt solution (final concentration 0.05 mg/mL) was added to each microplate well. The microplate was placed for 3–4 h (depending on the cell line) in a CO2 incubator. After incubation, 100 μL of DMSO was added to the wells of the microplate to dissolve the purple formazan crystals formed in the living cell environment. The absorbance of the formazan solution, after gentle mixing, was read at a wavelength of λ = 580 nm and a reference wavelength of λ = 720 nm (Biotek Power Wave HT, Biotek Instruments, Winooski, VT, USA). The percentage of living cells was calculated by comparing the absorbance value of the tested samples with the absorbance value of the control (cells not treated with compounds). The absorbance of the control was taken as 100%.

HT-29 = assay: MTT cell viability assay; settings: for IC50: HT-29, 24 h incubation with compound, mean ± SD of three experiments, read-out: Cytotoxic effect, IC50; for IC50 difference, HT-29 vs other cell lines: HT-29, difference of IC50 values, read-out: IC50 in HT-29 higher compared to the other cell lines
Description: as §1, §2, §3

LoVo [1] = assay: Hydrogen peroxide level, H2DCFDA probe; settings: compound at IC50, 24 h; for Increase in H2O2 levels: vs control
Description: Cellular H2O2 levels were assessed using 2′,7′-dichlorodihydrofluorescein diacetate (H2DCFDA, Sigma-Aldrich, St. Louis, MO, USA), a well-established fluorogenic probe for intracellular hydrogen peroxide detection. H2DCFDA readily diffuses across the cell membrane and is subsequently hydrolyzed by intracellular esterases to non-fluorescent H2DCF. Oxidation of H2DCF by ROS generates highly fluorescent 2′,7′-dichlorofluorescein (DCF), which accumulates in the cytosol. […] The fluorescence intensity of DCF is directly proportional to the concentration of ROS within the cell.
Cells were seeded in black 96-well fluorometric microplates at a density of 10 × 10^3 cells/mL. […] Following compound incubation, the medium was removed, and the cell monolayers were washed twice with HBSS (140 mM NaCl, 5 mM KCl, 0.8 mM MgCl2, 1.8 mM CaCl2, 1 mM Na2HPO4, 10 mM HEPES, and 1% glucose). A volume of 50 µL of H2DCFDA solution in HBSS (final concentration 5 μM) was added to each well, and the cells were incubated for 30 min in the dark at 37 °C. After incubation with the H2DCFDA, fluorescence measurements were conducted using a Perkin-Elmer LS-5B spectrofluorometer (MA, USA) at the following excitation and fluorescence emission wavelengths: λex = 498 nm/λem = 522 nm. The fluorescence intensity of control cells was arbitrarily assigned a value of 100%. The results were expressed as percentages of control, calculated by comparing the fluorescence intensity ratio of the test samples to controls (100%). The fluorescence of samples was denoted as Δf in relation to the control.

LoVo [2] = assay: Autophagy induction, monodansylcadaverine (MDC) fluorescence; settings: compound at IC50, 24 h, vs control
Description: (§4) Autophagy induction in cells treated with the tested drugs was determined by measuring Monodansylcadaverine (MDC; Sigma-Aldrich; St. Louis, MO, USA) fluorescence according to a modified method described by Vázquez. […] In the cell, MDC accumulates in lipid-rich cell membranes. It has been shown that MDC can be used as a dye for detecting autophagy, as it accumulates in autophagolysosomes as a result of interaction with membrane lipids.
(§5) Cells were seeded in black 96-well fluorometric microplates at a density of 10 × 10^3 cells/mL. […] Following compound incubation, the medium was removed, and the cell monolayers were washed twice with HBSS (140 mM NaCl, 5 mM KCl, 0.8 mM MgCl2, 1.8 mM CaCl2, 1 mM Na2HPO4, 10 mM HEPES, and 1% glucose). A solution of MDC at a final concentration of 50 μM was added to each well and incubated in a CO2 cell culture incubator at 37 °C for 15 min. After incubation with MDC, the probe was removed, and the cells were lysed with 50 μL of lysis buffer (10 mM TRIS-HCl; pH 8 containing 0.1% Triton X-100). After lysis, fluorescence was measured at an excitation wavelength of λex = 390 nm and an emission wavelength of λem = 460 nm using a Perkin-Elmer LS-5B spectrofluorometer (Waltham, MA, USA). In order to normalize the number of cells in individual samples, the amount of DNA was determined by adding 50 μL of EB (final concentration 0.2 mM) to each well after measuring the MCB fluorescence and measuring the EB fluorescence at an excitation wavelength of λex = 530 nm and an emission wavelength of λem = 590 nm. The results were calculated as the ratio of MDC fluorescence to EB fluorescence.

SW620 = assay: as above; settings: compound at IC50, 24 h, vs control
Description: as §4, §5

IC50 difference, HT-29 vs other cell lines (HT-29; Homo sapiens) | Compound | IC50 (Caco-2; Homo sapiens, Caco-2, 24 h) | IC50 (HT-29; Homo sapiens, HT-29, 24 h) | Increase in H2O2 levels (LoVo [1]) | Increase in MDC fluorescence intensity (autophagy) (LoVo [2]) | Increase in MDC fluorescence intensity (autophagy) (SW620) | IC50 (Caco-2) | IC50 (HT-29) | Decrease in MDC fluorescence intensity (LoVo [2]) | Change in MDC fluorescence intensity (SW620) | Effect on H2O2 levels (LoVo [1]) | Change in MDC fluorescence intensity (LoVo [2]) | Decrease in MDC fluorescence intensity (SW620)
~10 µM | O=C1/C(=C/c2ccccc2)COc2ccccc21 [Compound 1] | 10.2 ± 1.8 µM | 21.1 ± 1.3 µM | 10% | approximately 20% | approximately 40% |  |  |  |  |  |  | 
 | COc1cccc(/C=C2/C(=O)c3ccccc3OC2c2ccccc2)c1 (centres unmarked) [Compound 3] | ~70 µM | ~115 µM | 10% |  |  | 69.9 ± 5.1 µM | 117 ± 6.1 µM | 20% | no significant changes |  |  | 
~10 µM | O=C1/C(=C/c2ccccc2)C(c2ccccc2)Oc2ccccc21 (centres unmarked) [Compound 5] | ~70 µM | 31.1 ± 1.4 µM |  |  |  | 72.1 ± 1.7 µM |  |  |  | did not affect H2O2 levels | No significant changes | 20%
